Results on one compound are retold here after PMC9457815 (Molecules, 2022).

The target of one data set is T1, POP (Homo sapiens, UniProt P48147).
T1 construct: purchased BPS Bioscience Inc
T1 sequence (P48147 1-710): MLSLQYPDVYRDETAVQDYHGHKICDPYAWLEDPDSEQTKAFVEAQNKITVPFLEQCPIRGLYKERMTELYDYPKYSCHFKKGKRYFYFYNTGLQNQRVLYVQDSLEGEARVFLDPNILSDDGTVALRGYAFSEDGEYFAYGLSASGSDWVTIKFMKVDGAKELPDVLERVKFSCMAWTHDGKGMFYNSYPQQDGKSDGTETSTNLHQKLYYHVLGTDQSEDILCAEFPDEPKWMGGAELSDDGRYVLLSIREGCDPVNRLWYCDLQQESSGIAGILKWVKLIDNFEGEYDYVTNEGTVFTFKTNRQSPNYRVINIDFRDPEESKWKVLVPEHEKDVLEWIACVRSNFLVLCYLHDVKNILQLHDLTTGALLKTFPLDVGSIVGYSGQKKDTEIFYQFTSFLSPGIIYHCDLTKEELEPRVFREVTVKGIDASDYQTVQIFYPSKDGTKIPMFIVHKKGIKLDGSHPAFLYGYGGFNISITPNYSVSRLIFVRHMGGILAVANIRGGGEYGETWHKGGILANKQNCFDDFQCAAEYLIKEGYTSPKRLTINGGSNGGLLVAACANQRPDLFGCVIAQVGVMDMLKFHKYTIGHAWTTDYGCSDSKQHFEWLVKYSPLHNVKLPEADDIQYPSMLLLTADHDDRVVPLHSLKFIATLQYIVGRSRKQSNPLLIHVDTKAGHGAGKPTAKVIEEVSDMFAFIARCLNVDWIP
As to the kind of experiment: Prolyloligopeptidase (POP) inhibition assay, fluorogenic kit. The class given is biochemical. Conditions: substrate DPP (Ala-Pro-AMC dipeptide); nid = no inhibition detected at 1 mM; read-out: IC50 POP. On the procedure:
POP enzyme activity was measured using the Fluorogenic POP Assay Kit (BPS Bioscience Inc., San Diego, CA, USA). The reaction was carried out in a final volume of 50 μL in a low-binding NUNC microtiter plate. All compounds were tested at a final concentration of 250 μM in duplicate. A DPP substrate was added to a final concentration of 2.5 μM and the POP enzyme solution was subsequently added to a final concentration of 1 ng/μL. Optical densities at 440 nm were recorded using a microplate reader (Synergy H1, Biotek, QC, Canada).

The test system of a further data set is Huh7 cells. As to the kind of experiment: Cytotoxicity assay (Cell-Titer GLO, cellular ATP levels) on Huh7 cells. The class given is cell-based, human. The note with it: 200 µM. On the procedure:
(§1) Briefly, 7.5 × 10^3 Huh7 cells/well or 2 × 10^4 THP-1 cells/well were plated in black 96-well plates and incubated at 37 °C for 24 h. […] Each dilution was added to the cell plates to obtain final concentrations of 6.25 µM to 200 µM for alkaloids and DMSO, and 0.39 µM to 50 µM for lycorine. […] The plates were then incubated at 37 °C and 5% CO2 for 72 h. Cell-Titer GLO reagent was added to the plates previously equilibrated to room temperature. The plates were then mixed on an orbital shaker for 2 min and incubated for 10 min at room temperature. The luminescence signal was measured with a microplate spectrophotometer (Synergy H1, Biotek, Dorval, QC, Canada). Viability percentages were obtained by calculating the ratio of the signal corresponding to each alkaloid concentration to the signal of the equimolar DMSO control. All experiments were performed at least twice. Median cytotoxic concentrations (CC50) were calculated using QuestGraph IC50 calculator software (MLA Quest Graph™ IC50 Calculator, AAT Bioquest, Inc., Sunnyvale, CA, USA).

Assay in data set [1]: as above
The format is cell-based, human. Conditions: human; Huh7 cells, 72 h, ATP levels. How it is done:
as §1

A further data set deals with DENVGFP. Kind of data set: Antiviral assay, propagative DENVGFP vector in Huh7 cells, flow cytometry. The class given is cell-based, dengue virus (serotype 2). The note with it: Dengue virus, Huh-7, 72 h, read-out: EC50 DENV. How it is done:
(§2) The plasmid used to obtain the DENVGFP vector (pFK-DVs-G2A) was provided by Ralf Bartenschlager (Heidelberg University, Heidelberg, Germany) and Laurent Chatel-Chaix (Institut National de la Recherche Scientifique, Laval, QC, Canada). The 2 plasmids used to obtain the HIV-1GFP vector were PMD2.G and pNL4-3-GFPΔEnvΔNef. For DENVGFP, viral titer was measured using a plaque assay in Vero cells, as described in [53]. For HIV-1GFP, the viral titer was obtained by measuring the infectivity of serially diluted vectors in CRFK cells, as described in [54].
(§3) Briefly, 7.5 × 10^3 Huh7 cells/well or 2 × 10^4 THP-1 cells/well were plated in 96-well plates at 37 °C for 24 h. […] Each dilution was added to the cell plates to obtain final concentrations of 1.56 µM to 200 µM for alkaloids and matched concentrations of DMSO, and 0.05 µM to 6.4 µM for lycorine or 0.078 µM to 10 µM for raltegravir. Lycorine and raltegravir were used as DENV and HIV-1 inhibitor controls, respectively. DENVGFP and HIV-1GFP were then added at multiplicities of infection (MOIs) of 0.025 and 0.1, respectively. Plates were placed in an incubator at 37 °C and 5% CO2 for 72 h. Afterward, the cells were fixed in 3.7% formaldehyde and the percentage of infection was measured using flow cytometry with an FC500 MPL cytometer (Beckman Coulter, Inc., Brea, CA, USA). Data analysis was performed using Flowjo software (BD, FlowJo LLC, Ashland, OR, USA). All experiments were performed at least twice. EC50 values were calculated using QuestGraph IC50 calculator software (MLA Quest Graph™ IC50 Calculator. AAT Bioquest, Inc. https://www.aatbio.com/tools/ic50-calculator (accessed on 1 July 2022)).

The subject of another data set is THP-1 cells. Kind of data set: Cytotoxicity assay (Cell-Titer GLO, cellular ATP levels) on THP-1 cells. The note with it: 100 µM, killing a majority of the cells. The format is cell-based, human. How it is done: as §1
Assay in data set [2]: as above
The format is cell-based, human. The note with it: human; THP-1 cells, 72 h, ATP levels. How it is done: as §1

Another data set relates to HIV-1GFP. As to the kind of experiment: microbe, parasite or virus in culture. The format is cell-based, human immunodeficiency virus (HIV)-1. How it is done:
as §2, §3

The target in another data set is T2, AChE (Electrophorus electricus, UniProt O42275).
T2 construct: purchased Abcam ab138871
As to the kind of experiment: biochemical. The class given is biochemical, electric eel. Conditions: substrate ATCh; nid = no inhibition detected at 1 mM. How it is done:
(§4) Pharmacological properties specific to AD were tested first on AChEs (electric eel) according to the kit (ab138871, Abcam) that provides a colorimetric measure of enzyme activity and inhibition. Briefly, the reaction was performed in a final volume of 100 μL in 96-well microplates. […] For this, DMSO-dissolved test compounds were added to a final concentration of 1 mM (1% DMSO) in duplicates. Next, a 5 μL reaction mixture containing equal amounts of acetylthiocholine (20X) and DTNB (20X) was added to each well. Ultimately, the enzyme solution was added to a final concentration of 0.25 U/mL and the absorbance was measured at 412 nm in kinetic mode for 10 min using a microplate reader (Synergy H1, Biotek, Dorval, QC, Canada). The same procedure was utilized for the BuChE (equine, Sigma-Aldrich) activity test, except that the enzyme concentration was 2 U/mL per reaction. DTNB (Bis(3-carboxy-4-nitrophenyl) disulfide, Ellman’s Reagent), acetylthiocholine iodide, and butyrylthiocholine iodide were purchased from Sigma-Aldrich (Oakville, ON, Canada). […] Experiments were performed at least twice. Inhibition was calculated as follows:I = 100 × (1 − Δi/Δe) where Δi is the difference in the absorbance between two time points in the presence of the inhibitor, and Δe is the difference in the absorbance using two time points in presence of DMSO or an appropriate solvent.

The target of another data set is T3, BuChE (Equus caballus, UniProt P81908).
T3 construct: purchased Sigma-Aldrich
As to the kind of experiment: biochemical. Conditions: nid = no inhibition detected at 1 mM. Also noted: species or system equine. On the procedure:
as §4

T3 sequence (P81908 whole entry): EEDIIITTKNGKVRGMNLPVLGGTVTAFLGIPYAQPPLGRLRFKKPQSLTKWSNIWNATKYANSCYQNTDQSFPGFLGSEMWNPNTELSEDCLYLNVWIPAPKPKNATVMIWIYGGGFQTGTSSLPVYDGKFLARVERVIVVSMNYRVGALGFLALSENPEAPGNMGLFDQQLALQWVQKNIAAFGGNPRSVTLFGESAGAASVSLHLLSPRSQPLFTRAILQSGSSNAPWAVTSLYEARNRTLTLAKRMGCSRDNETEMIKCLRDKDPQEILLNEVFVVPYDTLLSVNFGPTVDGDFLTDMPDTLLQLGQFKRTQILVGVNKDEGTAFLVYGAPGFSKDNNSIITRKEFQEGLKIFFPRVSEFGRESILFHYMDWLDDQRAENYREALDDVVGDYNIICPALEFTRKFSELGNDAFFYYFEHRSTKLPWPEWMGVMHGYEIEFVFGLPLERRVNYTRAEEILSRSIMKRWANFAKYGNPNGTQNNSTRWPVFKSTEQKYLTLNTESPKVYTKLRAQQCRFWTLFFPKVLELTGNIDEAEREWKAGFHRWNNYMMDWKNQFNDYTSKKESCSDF
T2 sequence (O42275 24-633): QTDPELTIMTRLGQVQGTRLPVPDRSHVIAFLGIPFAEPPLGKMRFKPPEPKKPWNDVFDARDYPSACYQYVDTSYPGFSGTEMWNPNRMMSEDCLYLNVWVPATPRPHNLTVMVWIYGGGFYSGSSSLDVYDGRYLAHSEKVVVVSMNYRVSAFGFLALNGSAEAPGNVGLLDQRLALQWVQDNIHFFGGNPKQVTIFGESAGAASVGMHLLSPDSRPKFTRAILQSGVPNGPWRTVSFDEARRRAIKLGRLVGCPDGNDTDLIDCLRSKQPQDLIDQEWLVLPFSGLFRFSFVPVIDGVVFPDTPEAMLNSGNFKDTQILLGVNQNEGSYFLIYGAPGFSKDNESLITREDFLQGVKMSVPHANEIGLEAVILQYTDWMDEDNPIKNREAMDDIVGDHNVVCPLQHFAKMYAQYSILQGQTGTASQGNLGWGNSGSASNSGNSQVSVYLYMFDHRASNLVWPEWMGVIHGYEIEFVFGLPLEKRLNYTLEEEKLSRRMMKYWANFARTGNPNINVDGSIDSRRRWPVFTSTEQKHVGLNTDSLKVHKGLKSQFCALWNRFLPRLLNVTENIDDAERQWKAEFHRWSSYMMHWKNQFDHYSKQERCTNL

The term IC50 denotes the concentration at which inhibition is half-maximal. For orientation: CC50 means the concentration at which the toxic effect on the cells reaches its halfway point. What is called EC50 is the midpoint of the concentration-response curve. One may read the inhibition as the drop in the measured response relative to a control, in per cent. For the compound `Oc1ccc(CC/N=C/c2ccc(O)c(O)c2)cc1` [Norcraugsodine], the IC50 at POP was determined as 567 µM. The “cell death, Huh7 cells” value in the data set on Huh7 cells was 50%. In addition, the CC50 at 72 h in data set [1] turned out to be 122 µM; in [2], 27 µM. The EC50 came out at 37.7 µM in the data set on DENVGFP and 55.5 µM with HIV-1GFP (Human immunodeficiency virus 1, THP-1, 72 h, read-out: EC50 HIV-1). In addition, the “cytotoxicity to THP-1 cells” value with THP-1 cells is recorded as “highly cytotoxic”. Also, in the data set on HIV-1GFP (Human immunodeficiency virus 1, THP-1, read-out: inhibition of HIV-1 infection), the inhibition at 200 µM fell in the range of 94 to 99%. Further, the “IC50 AChE” value at AChE was “nid”. Moreover, the “IC50 BuChE” value on BuChE (substrate ATCh) and on BuChE (substrate BuTCh) was “nid” in each case.
